From patent US20250263457A1, “Pharmaceutical Composition for Preventing and Treating Liver Disease Comprising Novel Peptide” (Pusan National University Industry-University Cooperation …, priority 2024, published 2025)

Experiments:
CD44 [1] = test: Western blot of CD44ICD in nuclear proteins of human pHSCs (CD44 cleavage); assay type: cell-based; settings: 40 ng/ml, 24 hours, vs control (FIG. 3A)
Protocol: Specifically, pHSCs were treated with peptide YJ (40 ng/ml) for 0, 6, 12, or 24 hours, and then nuclear proteins were isolated. Western blotting was performed on the isolated nuclear proteins to confirm the expression of CD44 and CD44ICD. The nuclear proteins were obtained by a nuclear protein fractionation method.
At this time, the primary antibodies were used with anti-CD44 antibody (Abcam, ab157107), anti-CD44ICD antibody (Cosmo Bio, KAL-KO601), and anti-LAMIN B1 antibody (Abcam, ab16048), and the secondary antibody was used with Goat anti-Rabbit IgG antibody (HRP conjugate) (Enzo, ADI-SAB-300-J). In addition, human pHSCs treated with PBS were used as a control group. The CD44 and CD44ICD expression results were normalized to the expression level of LAMIN B1, which was an internal control group, and expressed as mean±SEM values obtained from the same experiment repeated three times.

[2] = tested on: alcohol-related liver disease mouse model; test: Liver size/weight and serum AST/ALT in alcohol-related liver disease mouse model; assay type: in vivo, C57BL/6 male mice
Protocol: (§1) To prepare alcohol-related liver disease mice, 8-week-old C57BL/6 male mice were fed with a Lieber DeCarli liquid diet (Dyets, 710260) containing 5% EtOH for 9 weeks, and then injected intraperitoneally with a vehicle (PBS) every other day along with feeding liquid diet for additional 3 weeks. As a control group for the EtOH diet, mice fed with a pair Lieber DeCarli liquid diet (Dyets, 710027) having the same total calories as the EtOH diet were used (FIG. 4A).
Specifically, 20 μl of mouse serum was mixed with 100 μl of a GOT buffer or GPT buffer, and then reacted at 37° C. Thereafter, the mixture was added with a 0.0198% 2,4-dinitrophenylhydrazine colorimetric solution (100 μl), and then further reacted at room temperature for 20 minutes. Thereafter, the mixture was added with 0.4 N NaOH (1 ml) to terminate the reaction, and absorbance (505 nm) was measured. The absorbance was expressed in international units per liter (IU/L).
(§2) The alcohol-related liver disease mouse model established by the method of Example 5.1 was administered vehicle (PBS) or peptide YJ (3.3 μg/kg) intraperitoneally every other day for three weeks, and then blood was collected and liver tissue was extracted to confirm the liver disease treatment effect of peptide YJ.
The weight and degree of tissue damage of the liver tissue extracted from the experimental mice of Example 5.3 were measured in the same manner as in Example 5.2.1.

CD44 [3] = test: CD44 and CD44ICD expression in liver tissue of mouse model (IHC, Western blot); assay type: in vivo, C57BL/6 male mice; settings: 3.3 μg/kg i.p. every other day for three weeks
From the text: as §1, §2
The expression of CD44 and CD44ICD in liver tissues extracted from the experimental mice of Example 5.3, or nuclear proteins or whole proteins (whole lysate) of liver tissues, was confirmed through immunohistochemical staining and Western blot. The immunohistochemical staining was performed using anti-CD44 antibody and anti-CD44ICD antibody by the method of Example 5.2.3, and Western blot was performed by the method of Examples 2 and 4.

[4] = tested on: alcohol-related liver disease mouse model; test: Fibrosis markers and collagen accumulation in liver tissue of mouse model; assay type: in vivo, C57BL/6 male mice; settings: 3.3 μg/kg i.p. every other day for three weeks, EtOH diet group, vs vehicle
From the text: as §1
In most chronic liver diseases, severe inflammatory responses were accompanied by fibrosis. Accordingly, the degree of fibrosis in the liver tissue of the alcohol-related liver disease mouse model established by the method of Example 5.1 in the present disclosure was confirmed through the expression of fibrosis markers using RT-qPCR and Western blot. In addition, the accumulation of collagen in the liver tissue and the expression of α-SMA were confirmed. In addition, the concentration of collagen in the liver tissue was confirmed through Sirius red staining, and the expression of α-SMA was confirmed through immunohistochemical staining. At this time, RT-qPCR and Western blot were performed in the same manner as in Example 2, and immunohistochemical staining (IHC) was performed in the same manner as in Example 5.2.3. In IHC, an anti-α-SMA antibody was used as the primary antibody.
After deparaffinization and hydration of the liver tissue section slides prepared in the same manner as in Example 5.2.3, the section slides were treated with 0.1% Sirius red F3B (Sigma-Aldrich) and 0.1% Fast Green (Sigma-Aldrich) solutions containing saturated picric acid (Sigma-Aldrich) and reacted for 20 minutes. After the staining reaction was completed, the section slides were dehydrated, mounted, and observed under a microscope. […] In addition, it was confirmed that the expression of α-SMA in the liver tissue in the EtOH diet group increased compared to the control group (pair) (FIG. 5D).
as §2
The degree of fibrosis in the liver tissue extracted from the experimental mice of Example 5.3 was confirmed in the same manner as in Example 5.2.4.

human pHSCs = test: RT-qPCR and Western blot of fibrosis/activation markers in human pHSCs; assay type: cell-based; settings: 40 ng/ml, 24 and 48 hours, vs control (FIGS. 3C, 3D)
Protocol: In addition, after pHSCs were treated with peptide YJ for 24 and 48 hours by the same method as above, respectively, RNA and protein were extracted (whole lysate) and the expression of pHSCs activation markers was confirmed through RT-qPCR (FIG. 3C) and Western blot (FIG. 3D). Western blot was performed using the same method as in Example 2, and RNA extraction and RT-qPCR were performed as follows. At this time, human pHSCs treated with PBS were used as a control group.
First, total RNA was extracted from each cell using a Trizol solution (Invitrogen, 15596-026), and then the concentration and purity of RNA were confirmed using a nanodrop. Thereafter, complementary DNA (cDNA) was synthesized using the RNA as a template using the SuperScript First-strand Synthesis System (Invitrogen, 18064014). The cDNA synthesized by the method was used as sample DNA in quantitative real-time PCR (qPCR).
The quantitative real-time PCR (qPCR) was performed using Power SYBR Green Master Mix (Applied Biosystem), and the results were analyzed by a […] method. The qPCR results were analyzed for significance using Mean±SEM values of three independent experiments through one-way ANOVA followed by post hoc Tukey's test.

[5] = 3.3 μg/kg i.p. every other day for three weeks, EtOH diet group, vs vehicle (FIG. 6C)
[6] = EtOH diet group, vs vehicle, Western blot (FIG. 8B)
[7] = RT-qPCR, Western blot (FIGS. 7A, 7B)

“peptide YJ: TSG-6 fragment: core domain RSGKYKLTYAEAKA plus C-terminal extension VCEFEGGHLATYKQLEAARKIGFHVCAAGWMAK (SEQ ID NO: 9); TSG-6 mimetic (RSGKYKLTYAEAKAVCEFEGGHLATYKQLEAARKIGFHVCAAGWMAK; peptide 4)” was tested, and the “nuclear expression and accumulation of CD44ICD” value (CD44 [1]) was “significantly reduced”, the “serum ALT level” value [2, 5] was “decreased” and the “serum AST level” value [2, 5] was “decreased”. The “size and weight of the liver tissue” value ([2]; 3.3 μg/kg intraperitoneally every other day for three weeks, between groups (FIGS. 6A, 6B)) was “did not show statistically significant differences”, the “expression of CD44ICD in whole lysate of liver tissue” value (CD44 [3]; [6]) was “reduced” and the “expression of CD44 in whole lysate of liver tissue” value (CD44 [3]; [6]) was “reduced”. The “expression of CD44ICD in nuclear protein of liver tissue” value (CD44 [3]; EtOH diet group, vs vehicle, Western blot (FIG. 8C)) was “significantly reduced”, the “expression of CD44 in liver tissue” value (CD44 [3]; immunohistochemical staining (FIG. 8A)) was “decreased” and the “mRNA and protein expression of collagen1α1 in the liver tissue” value [4, 7] was “significantly reduced”. The “mRNA and protein expression of vimentin in the liver tissue” value [4, 7] was “significantly reduced”, the “mRNA and protein expression of α-SMA in the liver tissue” value [4, 7] was “significantly reduced” and the “collagen accumulation in the liver tissue” value ([4]; hydroxyproline assay, Sirius red staining, IHC (α-SMA) (FIGS. 7C, 7D)) was “significantly reduced”. The “expression of COL1α1” value (human pHSCs; RT-qPCR and Western blot) was “decreased”, the “expression of CTGF” value (human pHSCs; RT-qPCR and Western blot) was “decreased” and the “expression of TGF-β” value (human pHSCs; RT-qPCR and Western blot) was “decreased”. The “expression of TIMP1” value (human pHSCs; RT-qPCR and Western blot) was “decreased”, the “expression of α-SMA” value (human pHSCs; RT-qPCR and Western blot) was “decreased” and the “expression of GFAP (inactivation marker of pHSCs)” value (human pHSCs) was “increased”.
